Here are results for 18 molecules from PubChem BioAssay (NCI).

Where “and” joins values, the source holds several entries; their conditions need not be identical. Identical values can stand only once.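 Protocol summary: plate cells (96-well), add compound at 5 concentrations, incubate 48 h, interpolate endpoints linearly. GI50: concentration for 50% inhibition of growth. The concentration for full growth arrest is given as TGI.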

Experiment in all cases: NCI-60 cell line screen, 48 h
The subject of assay [1] is NCI-H522 lung.
Assay [2] relates to U251 CNS.
Assay [3] relates to OVCAR-5 ovarian.
Assay [4] relates to NCI-H460 lung.
Assay [5] relates to HCC-2998 colon.
Assay [6] deals with EKVX NSCLC.
Assay [7] concerns HOP-92 NSCLC.
Assay [8] concerns CAKI-1 renal.
The subject of assay [9] is HCT-15 colon.
Assay [10] concerns LOX IMVI melanoma.

As to `CCOC(=O)c1c(NN2CCN(CC(F)(F)F)CC2)oc(/C=C2\C=Nc3ncccc32)c1O`, the GI50 in assay [1] was 1.05 µM; in assay [2], 4.01 µM; in assay [3] it was 19.3 µM; in assay [4] it was 3.49 µM; in assay [5], 2.7 µM; in [6] it was 11.1 µM. Besides, the GI50 in assay [7] is 12.9 µM; in assay [8], 1.08 µM; in assay [9] it was 6.59 µM; in assay [10] it was 2.28 µM. Moreover, the TGI in assay [1] worked out at 11.1 µM; in [2] it was 28 µM; in assay [3], 67.5 µM; in assay [4] it was 20.2 µM; in assay [5] it was 12.6 µM; in assay [6] it was 33.2 µM. For the same molecule, the TGI in [7] was determined as 40.9 µM; in assay [8], 13.5 µM; in [9], 46.7 µM; in assay [10] it was 11.8 µM.
On to `Cc1nc2ccccc2c(=O)n1/N=C(\N=Nc1ccccc1)c1ccccc1Cl`, for which the TGI is over 74.4 µM in [1]; over 100 µM in assay [2]; over 100 µM in assay [3]; over 100 µM in assay [4]; over 100 µM in assay [5]; over 100 µM in [6]. Further, the TGI in assay [7] is 64.2 µM; in [8] it was 81.4 µM; in assay [9], over 100 µM; in assay [10] it was over 100 µM.
In the case of `O=CN/C=C/c1ccccc1`, the TGI in assay [1], in [2], in assay [3], in assay [4], in assay [5] and in [6] was over 100 µM throughout. For the same molecule, the TGI in [7], in assay [8], in assay [9] and in [10] was over 100 µM each time.
For the molecule `CC(=O)O[C@@H]1c2c(c3c(=O)c4cccc(O)c4c(=O)c=3c2=[N+]=[N-])[C@H](OC(C)=O)[C@@H](OC(C)=O)[C@]1(C)O`, the GI50 in assay [1] is 0.0693 µM; in [2], 0.532 µM and 0.101 µM; in assay [3] it was 0.613 µM; in assay [4], 0.149 µM; in [5] it was 0.358 µM; in assay [6] it was 0.122 µM. Also, the figures for the GI50 in [7], in [8] and in [9] were 0.172 µM, 0.182 µM and 0.135 µM, respectively. Further, the TGI in assay [1] was 0.776 µM and 0.201 µM; in assay [2] it was 1.14 µM and 0.222 µM; in assay [3], 1.23 µM and 1.35 µM; in assay [4], 1.9 µM and 0.352 µM; in assay [5], 0.522 µM and 1.22 µM; in assay [6], 1.38 µM and 0.663 µM. The TGI was 1.84 µM and 0.355 µM in assay [7]; 1.04 µM and 0.374 µM in assay [8]; 0.476 µM and 0.298 µM in assay [9]; 0.413 µM and 0.275 µM in [10].
Consider `NC(=O)c1cn(C2CC(O)C(CO)O2)c2ncnc(N)c12` (centres undefined), for which the GI50 in assay [1] is 4.27 µM; in [2], 17.7 µM; in [3], 9.81 µM; in assay [4], 7.69 µM; in assay [5], 1.47 µM; in assay [6], 1.92 µM. Besides, the GI50 in assay [7] was 0.429 µM; in assay [8], 3.2 µM; in [9], 3.89 µM; in [10], 1.2 µM. Also, the TGI is 16.2 µM in [1]; over 100 µM in assay [2]; over 71.6 µM in assay [3]; over 100 µM in assay [4]; 5.62 µM in assay [5]; over 23.2 µM in assay [6]. Besides, the TGI was determined as 13.6 µM in assay [7], 39.4 µM in assay [8], 55.2 µM in [9] and 4.43 µM in [10].
Turning to `C=CCCn1nc(-c2ccccc2)oc1=O`, the TGI in [1], in assay [2], in assay [3], in assay [4], in assay [5] and in assay [6] was over 100 µM throughout. Also, the TGI in [7], in assay [8], in assay [9] and in [10] was over 100 µM each time.
Turning to `O=C1CCCc2ccc([N+](=O)[O-])c(O)c21`, the TGI in [1], in assay [2], in [3], in [4], in assay [5] and in [6] was over 100 µM each time. In addition, the TGI in [7], in assay [8], in assay [9] and in assay [10] was over 100 µM throughout.
Turning to `CCCCCSc1ccc2nc(NC(=O)OCC)sc2c1`, the GI50 in assay [1] is 0.245 µM; in assay [2], 0.41 µM; in assay [3] it was 2.73 µM; in [4] it was 0.523 µM; in assay [5], 4.88 µM; in assay [6] it was 0.557 µM. Further, the GI50 in [7] is 1.44 µM; in [8], 0.626 µM; in assay [9], 0.384 µM; in assay [10] it was 0.455 µM. Further, the TGI in assay [1] is 0.865 µM; in [2] it was 11 µM; in assay [3], over 100 µM; in [4] it was over 100 µM; in [5], over 100 µM; in [6], over 100 µM. In addition, the TGI was 67.8 µM in assay [7], over 100 µM in assay [8], over 100 µM in assay [9] and over 100 µM in assay [10].
With `CCn1nc(C2CCN(C(=O)CCO)CC2)nc1-c1cnc(N)c(-c2nnc(C(C)(C)C)o2)n1`, the GI50 in assay [1] is 15.3 µM; in assay [2] it was over 65.5 µM; in assay [3], 3.17 µM; in [4] it was 3.9 µM; in [5] it was 10.7 µM; in assay [6] it was 6.69 µM. Moreover, the GI50 in assay [7] was 0.208 µM; in assay [8] it was 3.35 µM; in assay [9], 6.17 µM; in assay [10] it was 3.2 µM. In addition, the TGI in assay [1] is 63.5 µM; in [2] it was over 100 µM; in assay [3] it was over 100 µM; in [4] it was over 100 µM; in [5] it was over 100 µM; in assay [6] it was over 100 µM. Moreover, the TGI was over 100 µM in assay [7], over 96.6 µM in [8], over 100 µM in [9] and 19.8 µM in [10].
On to `O=Cc1ccc(-c2ccc(-c3nc4ccccc4s3)cc2)o1`, for which the GI50 in assay [1] was over 100 µM; in [2], 35.2 µM; in assay [3], over 100 µM; in assay [4], 76.4 µM; in assay [5], over 100 µM; in assay [6], over 100 µM. Further, the GI50 in [7] is 94.3 µM; in [8], over 100 µM; in assay [9], 90.4 µM; in assay [10] it was 60.2 µM. The TGI in assay [1], in assay [2], in [3], in assay [4], in assay [5] and in assay [6] was over 100 µM throughout. The TGI in assay [7], in assay [8], in assay [9] and in assay [10] was over 100 µM each time.
Regarding `Cn1cnc([N+](=O)[O-])c1Sc1n[nH]c(-c2ccc(Cl)cc2)n1`, the TGI in [1] came out at 24.9 µM; in assay [2], 48.9 µM; in assay [3], 63.6 µM; in assay [4], 53.6 µM; in assay [5], 40.6 µM; in assay [6] it was 79.9 µM. Further, the values for the TGI in [7], in assay [8] and in assay [10] were 37.6 µM, 78.8 µM and 30.1 µM, respectively.
Turning to `COc1ccc(Nc2ncc(I)c(NCCCNC(=O)C3CCC3)n2)cc1`, the GI50 in assay [1] was 20.9 µM; in assay [2] it was 2.08 µM; in assay [3] it was 8.28 µM; in assay [4], 5.19 µM; in [5] it was 13.5 µM; in assay [6], 6.48 µM. In addition, the GI50 is 3.04 µM in assay [7], 1.32 µM in [8], 5.88 µM in assay [9] and 1.66 µM in assay [10]. Besides, the TGI is over 100 µM in [1]; 28.9 µM in assay [2]; 68.5 µM in assay [3]; 36.8 µM in assay [4]; 67.3 µM in assay [5]; 76.6 µM in assay [6]. For the same molecule, the TGI in assay [7] was determined as 29.2 µM; in assay [8], 16 µM; in assay [9] it was 52.1 µM; in [10] it was 13.6 µM.
Turning to `COc1cccc2c1C(=O)c1c(O)c3c(c(O)c1C2=O)C[C@](O)(C(=O)CO)C[C@H]3O[C@@H]1C[C@@H](NC(=O)CCCN(C)C2(c3ccc(F)cc3)CC3CCC2C3)[C@H](O)[C@@H](C)O1` (some centres undefined), the GI50 in assay [1] was 0.827 µM; in [2], 0.793 µM; in [3], 0.863 µM; in assay [4], 0.545 µM; in [5], 0.826 µM; in [6] it was 0.917 µM. In addition, the GI50 in assay [7] is 3.62 µM; in assay [8], 7.16 µM; in [9] it was 0.971 µM; in [10], 0.734 µM. In addition, the TGI came to 1.61 µM in assay [1]; 1.52 µM in assay [2]; 1.67 µM in assay [3]; 1.22 µM in assay [4]; 1.55 µM in assay [5]; 2.01 µM in assay [6]. For the same molecule, the TGI in [7] came out at 11.1 µM; in assay [8], 14.5 µM; in assay [9] it was 2.25 µM; in [10], 1.45 µM.
On to `COc1cc(-n2cc(-c3ccc(Cl)cc3)n(-c3ccccc3)c2=O)cc(OC)c1OC`, for which the GI50 is 18.3 µM in assay [1]; 23.5 µM in assay [2]; 39.4 µM in [3]; 14.9 µM in assay [4]; 22.9 µM in [5]; 18.5 µM in assay [6]. The GI50 in [7] was 22.7 µM; in assay [8], 26.8 µM; in [9], 8.54 µM; in assay [10] it was 24.3 µM. Moreover, the TGI is over 76 µM in assay [1]; over 100 µM in assay [2]; over 100 µM in assay [3]; over 100 µM in assay [4]; over 100 µM in [5]; over 100 µM in assay [6]. Further, the TGI in assay [7] was over 100 µM; in assay [8], over 89.9 µM; in assay [9] it was over 100 µM; in [10], over 100 µM.
For `Oc1ccc(N=Nc2ccc(Br)cc2)c(O)c1`, the GI50 in assay [1] is 1.74 µM; in assay [2] it was 3.59 µM; in assay [3], 5.75 µM; in [4], 3.29 µM; in assay [5], 3.55 µM; in assay [6], 3.86 µM. The GI50 in assay [7] is 1.1 µM; in assay [8] it was 4 µM; in [9], 3.42 µM; in assay [10] it was 8.05 µM. The TGI in assay [1] is 6.53 µM; in [2] it was 24.8 µM; in assay [3] it was 75.5 µM; in assay [4] it was 21.5 µM; in [5], 12 µM; in assay [6], 38.7 µM. For the same molecule, the TGI is 6.96 µM in assay [7], 21 µM in assay [8], 19.4 µM in assay [9] and 61.1 µM in [10].
On to `COc1cc2c3c(n(CCCN=[N+]=[N-])c(=O)c2cc1OC)-c1ccccc1C3=O`, for which the GI50 in [1] is 44.8 µM; in [2] it was 1.61 µM; in [4], 5.2 µM; in assay [5], 94.2 µM; in assay [6], over 100 µM; in assay [7], 7 µM. Further, the GI50 in assay [8] is 2.13 µM; in assay [9], 27.4 µM; in assay [10] it was 1.33 µM. Moreover, the TGI is over 100 µM in [1]; 24.5 µM in assay [2]; over 100 µM in assay [4]; over 100 µM in [5]; over 100 µM in assay [6]; 68.9 µM in assay [7]. The TGI is 7.77 µM in [8], over 100 µM in assay [9] and 9.14 µM in [10].
On to `N#CC(Sc1ccccc1)C(N)=O` (centres undefined), for which the TGI in [1], in assay [2], in assay [3], in [5], in assay [6] and in [7] was over 100 µM throughout. Further, the TGI in assay [8], in assay [9] and in assay [10] was over 100 µM throughout.
Regarding `C=CC12CCCCC1CC(C(=O)OC)=C(O)C2` (centres undefined), the TGI in [1], in [2], in assay [3], in assay [4], in assay [5] and in [6] was over 100 µM in each case. Moreover, the TGI in assay [7], in assay [8] and in assay [10] was over 100 µM each time.
